Laboratory results reported in ChEMBL document CHEMBL3612027, “Substrate-guided optimization of the syringolins yields potent proteasome inhibitors with activity against leukemia cell lines” (Bioorg Med Chem, 2015).

The molecules below were run against T1, Proteasome Macropain subunit MB1 (Homo sapiens, UniProt P28074) (assay: Inhibition of human 20S proteasome beta5 subunit using Suc-LLVY-AMC as substrate by fluorescence assay).
T1 sequence (P28074 whole entry): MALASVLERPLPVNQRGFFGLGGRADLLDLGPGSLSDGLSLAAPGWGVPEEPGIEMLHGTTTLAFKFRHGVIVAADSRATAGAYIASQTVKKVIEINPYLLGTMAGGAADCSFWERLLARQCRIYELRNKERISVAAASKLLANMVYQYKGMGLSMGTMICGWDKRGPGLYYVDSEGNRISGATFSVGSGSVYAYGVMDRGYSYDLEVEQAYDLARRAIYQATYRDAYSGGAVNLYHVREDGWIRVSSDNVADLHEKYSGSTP

SMILES | Ki [µM]
COC(=O)[C@@H](NC(=O)N[C@H](C(=O)N[C@H]1CCCCNC(=O)/C=C/[C@H](Cc2ccccc2Cl)NC1=O)C(C)C)C(C)C | 2.11
COC(=O)[C@@H](NC(=O)N[C@H](C(=O)N[C@H]1CCCCNC(=O)/C=C/[C@H](Cc2ccccc2)NC1=O)C(C)C)C(C)C | 0.743
COC(=O)[C@@H](NC(=O)N[C@H](C(=O)N[C@H]1CCCCNC(=O)/C=C/[C@H](Cc2ccc(Cl)cc2)NC1=O)C(C)C)C(C)C | 1.24
COC(=O)[C@@H](NC(=O)N[C@H](C(=O)N[C@H]1CCCCNC(=O)/C=C/[C@H](CC(C)C)NC1=O)C(C)C)C(C)C | 3.23
COC(=O)[C@@H](NC(=O)N[C@H](C(=O)N[C@H]1CCCCNC(=O)/C=C/[C@H](Cc2ccccc2F)NC1=O)C(C)C)C(C)C | 0.906
COC(=O)[C@@H](NC(=O)N[C@H](C(=O)N[C@H]1CCCCNC(=O)/C=C/[C@H](Cc2cc(F)cc(F)c2)NC1=O)C(C)C)C(C)C | 0.952
COC(=O)[C@@H](NC(=O)N[C@H](C(=O)N[C@H]1CCCCNC(=O)/C=C/[C@H](Cc2ccc(C)cc2)NC1=O)C(C)C)C(C)C | 1.14

The remaining lines, values ahead:

Ki [µM] | SMILES
0.592 | COC(=O)[C@@H](NC(=O)N[C@H](C(=O)N[C@H]1CCCCNC(=O)/C=C/[C@H](Cc2cccc(F)c2)NC1=O)C(C)C)C(C)C
7.58 | COC(=O)[C@@H](NC(=O)N[C@H](C(=O)N[C@H]1CCCCNC(=O)/C=C/[C@H](Cc2cccc(C(F)(F)F)c2)NC1=O)C(C)C)C(C)C
0.963 | COC(=O)[C@@H](NC(=O)N[C@H](C(=O)N[C@H]1CCCCNC(=O)/C=C/[C@H](Cc2cccc(Cl)c2)NC1=O)C(C)C)C(C)C
2.35 | COC(=O)[C@@H](NC(=O)N[C@H](C(=O)N[C@H]1CCCCNC(=O)/C=C/[C@H](Cc2cccc(C)c2)NC1=O)C(C)C)C(C)C

Each molecule was assayed against T2, Proteasome Macropain subunit MB1 (Homo sapiens) (UniProt P28074).
T2 sequence (whole entry): T1 sequence (P28074 whole entry)

SMILES | Kin [s⁻¹]
COC(=O)[C@@H](NC(=O)N[C@H](C(=O)N[C@H]1CCCCNC(=O)/C=C/[C@H](Cc2cccc(F)c2)NC1=O)C(C)C)C(C)C | 0.000486
COC(=O)[C@@H](NC(=O)N[C@H](C(=O)N[C@H]1CCCCNC(=O)/C=C/[C@H](Cc2cc(F)cc(F)c2)NC1=O)C(C)C)C(C)C | 0.0005
